The data set relates to CCRIS mutagenicity, Ames/micronucleus/aberration tests. Kind of data set: CCRIS mutagenicity studies.
Where [1] appears, read: Test System: AMES SALMONELLA TYPHIMURIUM, Strain/Indicator: TA98, Metabolic Activation: NONE, Method: PREINCUBATION
Setting [2] is: Test System: AMES SALMONELLA TYPHIMURIUM, Strain/Indicator: TA100, Metabolic Activation: NONE, Method: PREINCUBATION
The mark [3] stands for this setting: Test System: MOUSE LYMPHOMA, Strain/Indicator: L5178Y (TK+/TK-), Metabolic Activation: NONE, Method: SUSPENSION/PLATE.
Where [4] appears, read: Test System: AMES SALMONELLA TYPHIMURIUM, Strain/Indicator: TA100, Metabolic Activation: NONE, Method: STANDARD PLATE.
[5] abbreviates: Test System: AMES SALMONELLA TYPHIMURIUM, Strain/Indicator: TA1537, Metabolic Activation: NONE, Method: STANDARD PLATE.
Where [6] appears, read: Test System: AMES SALMONELLA TYPHIMURIUM, Strain/Indicator: TA98, Metabolic Activation: NONE, Method: STANDARD PLATE.
Setting [7] is: Test System: AMES SALMONELLA TYPHIMURIUM, Strain/Indicator: TA98, Metabolic Activation: RAT, LIVER, S-9, AROCLOR 1254, Method: STANDARD PLATE.
The mark [8] stands for this setting: Test System: AMES SALMONELLA TYPHIMURIUM, Strain/Indicator: TA100, Metabolic Activation: RAT, LIVER, S-9, AROCLOR 1254, Method: STANDARD PLATE.

Active and inactive are the calls of the source. The rule behind the calls is not given here.

With `CC(O)c1ccccc1` (stereo not drawn), the mutagenic call runs as follows: (Test System: AMES SALMONELLA TYPHIMURIUM, Strain/Indicator: TA98, Metabolic Activation: HAMSTER, LIVER, S-9, AROCLOR 1254 (10%), Method: PREINCUBATION) “inactive; negative”; (Test System: AMES SALMONELLA TYPHIMURIUM, Strain/Indicator: TA98, Metabolic Activation: HAMSTER, LIVER, S-9, AROCLOR 1254, Method: PREINCUBATION) “inactive; negative”; under setting [1], “inactive; negative”; (Test System: AMES SALMONELLA TYPHIMURIUM, Strain/Indicator: TA98, Metabolic Activation: RAT, LIVER, S-9, AROCLOR 1254 (10%), Method: PREINCUBATION) “inactive; negative”; (Test System: AMES SALMONELLA TYPHIMURIUM, Strain/Indicator: TA98, Metabolic Activation: RAT, LIVER, S-9, AROCLOR 1254, Method: PREINCUBATION) “inactive; negative”; (Test System: AMES SALMONELLA TYPHIMURIUM, Strain/Indicator: TA100, Metabolic Activation: HAMSTER, LIVER, S-9, AROCLOR 1254 (10%), Method: PREINCUBATION) “inactive; negative”. The mutagenic call is “inactive; negative” (Test System: AMES SALMONELLA TYPHIMURIUM, Strain/Indicator: TA100, Metabolic Activation: HAMSTER, LIVER, S-9, AROCLOR 1254, Method: PREINCUBATION); “inactive; negative” under setting [2]; “inactive; negative” (Test System: AMES SALMONELLA TYPHIMURIUM, Strain/Indicator: TA100, Metabolic Activation: RAT, LIVER, S-9, AROCLOR 1254 (10%), Method: PREINCUBATION); “inactive; negative” (Test System: AMES SALMONELLA TYPHIMURIUM, Strain/Indicator: TA100, Metabolic Activation: RAT, LIVER, S-9, AROCLOR 1254, Method: PREINCUBATION); “inactive; negative” (Test System: AMES SALMONELLA TYPHIMURIUM, Strain/Indicator: TA1535, Metabolic Activation: HAMSTER, LIVER, S-9, AROCLOR 1254 (10%), Method: PREINCUBATION); “inactive; negative” (Test System: AMES SALMONELLA TYPHIMURIUM, Strain/Indicator: TA1535, Metabolic Activation: HAMSTER, LIVER, S-9, AROCLOR 1254, Method: PREINCUBATION). Besides, the mutagenic call is “inactive; negative” (Test System: AMES SALMONELLA TYPHIMURIUM, Strain/Indicator: TA1535, Metabolic Activation: NONE, Method: PREINCUBATION); “inactive; negative” (Test System: AMES SALMONELLA TYPHIMURIUM, Strain/Indicator: TA1535, Metabolic Activation: RAT, LIVER, S-9, AROCLOR 1254 (10%), Method: PREINCUBATION); “inactive; negative” (Test System: AMES SALMONELLA TYPHIMURIUM, Strain/Indicator: TA1535, Metabolic Activation: RAT, LIVER, S-9, AROCLOR 1254, Method: PREINCUBATION); “inactive; negative” (Test System: AMES SALMONELLA TYPHIMURIUM, Strain/Indicator: TA1537, Metabolic Activation: HAMSTER, LIVER, S-9, AROCLOR 1254 (10%), Method: PREINCUBATION); “inactive; negative” (Test System: AMES SALMONELLA TYPHIMURIUM, Strain/Indicator: TA1537, Metabolic Activation: HAMSTER, LIVER, S-9, AROCLOR 1254, Method: PREINCUBATION); “inactive; negative” (Test System: AMES SALMONELLA TYPHIMURIUM, Strain/Indicator: TA1537, Metabolic Activation: NONE, Method: PREINCUBATION). Moreover, the mutagenic call is, setting by setting: (Test System: AMES SALMONELLA TYPHIMURIUM, Strain/Indicator: TA1537, Metabolic Activation: RAT, LIVER, S-9, AROCLOR 1254 (10%), Method: PREINCUBATION) “inactive; negative”; (Test System: AMES SALMONELLA TYPHIMURIUM, Strain/Indicator: TA1537, Metabolic Activation: RAT, LIVER, S-9, AROCLOR 1254, Method: PREINCUBATION) “inactive; negative”; under setting [3], “active; positive”.
For `CC(Br)(CBr)COP(=O)(OCC(C)(Br)CBr)OCC(C)(Br)CBr` (stereo not drawn), the mutagenic call (Test System: AMES SALMONELLA TYPHIMURIUM, Strain/Indicator: TA100, Metabolic Activation: RAT, LIVER, MICROSOMES, PHENOBARBITAL, Method: PREINCUBATION) is “inactive; negative” and the mutagenic call (Test System: AMES SALMONELLA TYPHIMURIUM, Strain/Indicator: TA100, Metabolic Activation: RAT, LIVER, MICROSOMES, Method: PREINCUBATION) was “inactive; negative”.
As for `c1ccc2cc3c4c(ccc3cc2c1)CCC1OC41` (stereo not drawn), the mutagenic call (Test System: CHINESE HAMSTER V-79, Strain/Indicator: V-79/8-AZAGUANINE, Metabolic Activation: NONE, Method: STANDARD PLATE) is “active; positive”.
As to `CC(C)C(=O)Nc1snc2ccccc12`, the mutagenic call runs as follows: under setting [4], “inactive; negative”; (Test System: AMES SALMONELLA TYPHIMURIUM, Strain/Indicator: TA100, Metabolic Activation: S-9, Method: STANDARD PLATE) “inactive; negative”; under setting [5], “inactive; negative”; (Test System: AMES SALMONELLA TYPHIMURIUM, Strain/Indicator: TA1537, Metabolic Activation: S-9, Method: STANDARD PLATE) “inactive; negative”.
As to `c1ccc2cnncc2c1`, the mutagenic call was “inactive; negative” (Test System: AMES SALMONELLA TYPHIMURIUM, Strain/Indicator: TA98, Metabolic Activation: HAMSTER, LIVER, S-9, AROCLOR 1254, Method: STANDARD PLATE); “inactive; negative” under setting [1]; “inactive; negative” under setting [6]; “inactive; negative” under setting [7]; “inactive; negative” (Test System: AMES SALMONELLA TYPHIMURIUM, Strain/Indicator: TA98, Metabolic Activation: RAT, LIVER, S-9, PCB, Method: PREINCUBATION); “inactive; negative” (Test System: AMES SALMONELLA TYPHIMURIUM, Strain/Indicator: TA100, Metabolic Activation: HAMSTER, LIVER, S-9, AROCLOR 1254, Method: STANDARD PLATE). Besides, the mutagenic call runs as follows: under setting [2], “inactive; negative”; under setting [4], “inactive; negative”; under setting [8], “inactive; negative”; (Test System: AMES SALMONELLA TYPHIMURIUM, Strain/Indicator: TA100, Metabolic Activation: RAT, LIVER, S-9, PCB, Method: PREINCUBATION) “inactive; negative”; (Test System: AMES SALMONELLA TYPHIMURIUM, Strain/Indicator: TA1535, Metabolic Activation: HAMSTER, LIVER, S-9, AROCLOR 1254, Method: STANDARD PLATE) “inactive; negative”; (Test System: AMES SALMONELLA TYPHIMURIUM, Strain/Indicator: TA1535, Metabolic Activation: NONE, Method: STANDARD PLATE) “inactive; negative”. Further, the mutagenic call runs as follows: (Test System: AMES SALMONELLA TYPHIMURIUM, Strain/Indicator: TA1535, Metabolic Activation: RAT, LIVER, S-9, AROCLOR 1254, Method: STANDARD PLATE) “inactive; negative”; (Test System: AMES SALMONELLA TYPHIMURIUM, Strain/Indicator: TA1537, Metabolic Activation: HAMSTER, LIVER, S-9, AROCLOR 1254, Method: STANDARD PLATE) “inactive; negative”; under setting [5], “inactive; negative”; (Test System: AMES SALMONELLA TYPHIMURIUM, Strain/Indicator: TA1537, Metabolic Activation: RAT, LIVER, S-9, AROCLOR 1254, Method: STANDARD PLATE) “inactive; negative”; (Test System: AMES SALMONELLA TYPHIMURIUM, Strain/Indicator: TA1538, Metabolic Activation: HAMSTER, LIVER, S-9, AROCLOR 1254, Method: STANDARD PLATE) “inactive; negative”; (Test System: AMES SALMONELLA TYPHIMURIUM, Strain/Indicator: TA1538, Metabolic Activation: NONE, Method: STANDARD PLATE) “inactive; negative”. The mutagenic call is, setting by setting: (Test System: AMES SALMONELLA TYPHIMURIUM, Strain/Indicator: TA1538, Metabolic Activation: RAT, LIVER, S-9, AROCLOR 1254, Method: STANDARD PLATE) “inactive; negative”; under setting [3], “active; positive. reevaluation of results: equivocal”; (Test System: MOUSE LYMPHOMA, Strain/Indicator: L5178Y (TK+/TK-), Metabolic Activation: RAT, LIVER, S-9, AROCLOR 1254, Method: SUSPENSION/PLATE) “active; positive. reevaluation of results: positive”.
Regarding `Cc1cc(C)c2c(ccc3ccccc32)c1`, the mutagenic call reads like this: under setting [6], “inactive; negative”; under setting [7], “inactive; negative”; under setting [4], “inactive; negative”; under setting [8], “active; positive”.
